Converted amounts (≈) assume the structure as drawn. Where two headings read alike, the source gives them in different places. One block for each molecule: values may come before it.
Tests used:
[1] = In vitro release of AGN 201634 from PDLG/PDL implants in different media; format: physicochemical
Protocol: TKI release was examined for implants made from poly (D,L-lactide-co-glycolide) (PDLG) or poly (D,L-lactide) (PDL) in different media with or without addition of detergent at 37° C. in a shaking water bath.
TKI release was examined in various medium, including saline, phosphate buffer saline of pH 7.4, 50 mM bicarbonate buffer of pH 6.0±0.1 with 0.1% cetyltrimethylammonium bromide (CTAB), and 50 mM borate buffer of pH 8.5±0.1 with 0.5% sodium dodecyl sulfate (SDS) in a shaking water bath (Precision) at 37° C. Sample was incubated in 10 mL of medium, and was totally replaced with fresh medium at each sampling time. Drug concentration was determined by HPLC using a Waters 2690 Separation Module equipped with a Waters XTerra RP8 column (3.9×150 mm, 5 μm, equilibrated at ambient) and a Waters 996 photodiode array detector (set at 238 nm) using 0.1% acetic acid in acetonitrile/water (40/60 by volume) as the mobile phase under a flow rate of 1.2 mL/min. The column was equilibrated with mobile phase for at least 30 min before initiating any sample injection.
The DDS was incubated in a vial of either 40 or 20 mL, and 10 mL sample solution was replaced by same volume of fresh medium, respectively, at each sampling time. The release profiles in saline and PBS were obviously different. Less than 5% of TKI was released in saline during the first 70 days. In contrast, less than 5% of AGN 201634 was released at the first 3 weeks when DDS was incubated in PBS, the same as in saline, but more than 80% of AGN 201634 was released after 70 days. […] It seems that release medium plans an important role in the variation of release profile instead of incubation volume. Due to this slow and diverged release profile, the release profile of Formulation 2 was not performed since its formulation was based on the same polymer with a lower drug loading.
For F3, more than 50%, 45%, and 75% TKI was released at the first 3, 7, and 2 weeks, when DDS was incubated in a medium of pH 6.0 (with 0.1% CTAB), 7.4 (PBS) and 8.5 (with 0.5% SDS), respectively. […]

[2] = Stability of AGN 201634 standard solution in DI water/acetonitrile at 4° C.; format: physicochemical; settings: DI water/acetonitrile (75%/25%) at 4° C.
Protocol: The stability of AGN 201634 standard solution in deionized water/acetonitrile (75%/25%) was examined at 4° C., and the results are summarized in the following table. The concentration of standard solution was from 0.0695 μg/mL to 8.693 μg/mL, and was analyzed on day 14, 21, and 35.
Stability of AGN 201634 standard solution of various concentrations in DI water/acetonitrile (75%/25%) at 4° C. (Table 9).

[3] = Stability of TKI in Formulations 3 and 4 in media of pH 6.0, 7.4 or 8.5; format: physicochemical
Protocol: To examine the stability of TKI in formulation, Formulations 3 and 4 were prepared to various concentration in a medium of pH 6.0, 7.4 or 8.5, respectively, and subjected to an incubation condition of either 7 days under ambient condition or 14 days at 4° C., and the results are summarized in the following table.

[4] = Physicochemical properties of the TKIs (solubility, log P, log D, pKa; Tables 2, 11, 13); settings: for logP: n-octanol/water, Table 2; for solubility: pH 7, aqueous buffer
Protocol: Tyrosine kinase inhibitors were incorporated into PLGA or PLA implants by extrusion. The TKIs were milled with the polymers at certain ratios then extruded into filaments. These filaments were subsequently cut into implants weighing approximately 1 mg. Several TKIs were formulated in the PLGA and PLA implants based on their potencies and physicochemical properties as shown in Table 2.
We developed a new (oil in water) process for making active agent microspheres (FIG. 23). This new process for making microspheres can be used with any small molecule which is slightly soluble in water and organic solvents and which is able to preferentially crystallize in organic solvents. Such small molecules include those which have a Log P greater than or equal to four. P, the partition coefficient, is defined as the ratio of the equilibrium concentration (Ci) of a dissolved substance in a two-phase system consisting of two largely immiscible solvents, for example the ratio of n-octanol (Co) to water (Cw).
Using our new process, each of the five different TKIs shown by FIG. 24 were separately incorporated into PLGA biodegradable microspheres. In FIG. 24 the five TKIs shown are identified as follows: first (uppermost) row: 206639 and 205558; second (middle) row: 206320 and 206316, and; bottom row: 206784. The properties of these five TKIs are set forth in Table 13, where “DSC” means differential scanning calorimetry and endotherms are noted in degrees Celsius (used to determine presence of TKI crystals).

[5] = In vitro TKI release from PLGA/PLA implants (Example 2); format: physicochemical; settings: for period of in-vitro release from implants: implants in release medium, 37° C.
Protocol: TKI release from the implants was assessed in vitro. Implants were placed into vials containing release medium and shaken at 37° C. At the appropriate time points a sample was taken from the release medium for analysis and the medium totally replaced to maintain sink conditions. Drug in the sample was assayed by HPLC and the cumulative percent release of drug from the implant noted as a function of time. The in vitro release profiles of AGN 200954, AGN 202314, AGN 201635 and AGN 202564 are depicted in FIGS. 3 through 10, respectively.

in vivo = settings: female, albino, rabbit
Protocol: (§1) Vitreous humor samples (n=4 eyes per timepoint) were collected at 0.5, 1, 2, 4, 8, and 12 hr postdose. The TKI concentration in the vitreous humor was determined using a liquid chromatography tandem mass spectrometry method (LC-MS/MS).

[6] = Intravitreal pharmacokinetics of TKIs in fluid compositions after a single intravitreal injection; settings: female, albino, rabbit, vitreous humor, other: intravitreal injection
Protocol: as §1

[7] = In vivo pharmacokinetics of AGN 202314 intravitreal PLGA implants; design: species or system rabbit
Protocol: Implants containing AGN 202314 were placed intravitreally or subconjunctivally in an eye. The implants released AGN 202314 in-vitro over a 14 day period (FIG. 3.). The intent of this study was to achieve an intravitreal in-vivo/in-vitro correlation with the intravitreal implants and assess the feasibility of periocular delivery.
Intravitreal Implants, PLGA (400 μg AGN 202314 dose, 1 mg total implant weight), were implanted by surgical incision into the mid vitreous of albino rabbits. At days 8, 15, 31 and 61 rabbits were sacrificed and the vitreous humor, lens, aqueous humor and plasma assayed for AGN 202314.

[8] = In vivo pharmacokinetics of AGN 202314 subconjunctival PLGA implants and PLA microspheres; settings: rabbit; for concentration at 8 day: Day 8
Protocol: Subconjunctival implants, PLGA (1200 μg AGN 202314 dose; three implants) and PLA microspheres (300 μg AGN 202314) were implanted subconjunctivally. At days 8, 15, 31 and 61 rabbits were sacrificed and the vitreous humor, lens, aqueous humor and plasma assayed for AGN 202314.

[9] = Day 31, subconjunctival PLGA implants, 3 rods, total 1.2 mg AGN 202314
[10] = Day 61, subconjunctival PLGA implants, 3 rods, total 1.2 mg AGN 202314

duration of controlled release in vitro ([1]; medium of pH 6.0): more than 5 months
duration of controlled release in vitro ([1]; medium of pH 7.4): more than 5 months
duration of controlled release in vitro ([1]; medium of pH 8.5): more than 4 weeks
stability of solution [2]: more than 35 days
stability of DDS solution in various pH medium ([3]; 4° C.): > 14 days
stability of DDS solution in various pH medium ([3]; ambient condition): more than 7 days
logP [4]: 1.25
solubility [4]: 88 µg/mL (≈ 271 µM)
Structure (SMILES): O=C(O)CC1O/C(=C2/C(=O)Nc3cc(F)ccc32)c2ccccc21 (centres unmarked) [AGN 201634]

pKa [4]: 9.65
logP [4]: 3.66
solubility [4]: 41 µg/mL (≈ 113 µM)
Structure (SMILES): Cc1cccc2c1C(=CNc1ccc(CCN3CCCCC3)cc1)C(=O)N2 [AGN 202560]

period of in-vitro release from implants [5]: 180 days
logP [4]: 2.21
solubility [4]: 0.3 µg/mL (≈ 1 µM)
clearance (in vivo): 0.00433 mL/min
Vd [6]: 0.000705 L
half-life [6]: 2.59 h
Structure (SMILES): Nc1ccc2c(c1)C(=C1C(=O)Nc3ccc(Cl)cc31)OC2 [AGN 200954, 3-(6-Amino-3H-isobenzofuran-1-ylidene)-5-chloro-1,3-dihydro-indol-2-one]

period of in-vitro delivery from formulations ([5]; 1 mg Purac PLA implants): four
period of drug release in vitro ([5]; AGN 202314 implant): two
period of in-vitro release from implants [5]: 14 days
plasma levels ([7]; all time points (days 8, 15, 31, 61), implants in rabbit eye): BLQ or extremely low
period of drug release in vivo ([7]; intravitreal PLGA implant, albino rabbit): two
Retina AGN 202314 concentration ([8]; Day 15, subconjunctival PLGA implants, 3 rods, total 1.2 mg AGN 202314): BLQ (BLQ: Retina and lens: <5 ng/g)
Lens AGN 202314 concentration [8, 9]: BLQ (BLQ: Retina and lens: <5 ng/g)
Retina AGN 202314 concentration [8, 9]: BLQ (BLQ: Retina and lens: <5 ng/g)
Lens AGN 202314 concentration [8, 10]: BLQ (BLQ: Retina and lens: <5 ng/g)
Retina AGN 202314 concentration [8, 10]: BLQ (BLQ: Retina and lens: <5 ng/g)
concentration at 8 day ([8]; aqueous humor, other: subconjunctival implant, subconjunctival PLGA implants, 3 rods, total 1.2 mg AGN 202314, read-out: Aqueous Humor AGN 202314 concentration): 6.38 ng/mL
concentration at 8 day ([8]; lens, other: subconjunctival implant, subconjunctival PLGA implants, 3 rods, total 1.2 mg AGN 202314, read-out: Lens AGN 202314 concentration): 229 ng/g
concentration at 15 day ([8]; lens, other: subconjunctival implant, Day 15, subconjunctival PLGA implants, 3 rods, total 1.2 mg AGN 202314): 7.93 ng/g
concentration at 8 day ([8]; retina, other: subconjunctival implant, subconjunctival PLGA implants, 3 rods, total 1.2 mg AGN 202314, read-out: Retina AGN 202314 concentration): 63.8 ng/g
periocular delivery to the vitreous and retina ([8]; subconjunctival implants and microspheres): unsuccessful
pKa [4]: 9.68
logP [4]: 3.8
solubility [4]: 202 µg/mL (≈ 547 µM)
Structure (SMILES): CCN(CC)CCOc1ccc(NC=C2C(=O)Nc3cc(F)ccc32)cc1 [AGN 202314]

Vd (in vivo): 0.000255 L
clearance (in vivo): 0.00387 mL/min
half-life (in vivo): 1.21 h
Structure (SMILES): O=C1Nc2ccccc2C1=CNc1ccc(N2CCOCC2)cc1 [AGN 199659, 3-[(4-Morpholin-4-yl-phenylamino)-methylene]-1,3-dihydro-indol-2-one]
